Consider two molecules from article PMC10788915, “Fragment Merging, Growing, and Linking Identify New Trypanothione Reductase Inhibitors for Leishmaniasis” (Journal of Medicinal Chemistry, 2024).

Data set [1] is described as follows: Cytotoxicity assay on human THP-1-derived macrophages (MTT). The class given is cell-based. The following applies: human, THP-1 cells differentiated into macrophages with PMA, 72 h, MTT; read-out: human THP-1-derived macrophage CC50 ± SE (95% CI). On the procedure:
(§1) To assess the cytotoxicity of compounds on mammalian macrophages, we tested all the compounds against both human leukemia monocyte cell line (THP-1 cells, ATCC) differentiated into macrophages by treatment with 40 ng/mL of phorbol myristate acetate (PMA; Sigma) for 48 h and peritoneal exudate macrophages harvested from Balb/c mice. […] Cell viability was evaluated using the MTT assay, and the concentration of the compound that produced a 50% reduction of cell viability in treated culture cells with respect to untreated ones (CC50) was determined by GraphPad Prism 5.0 (GraphPad Software Inc., San Diego, USA). […] The selectivity index for each compound was calculated as the ratio of cytotoxicity (CC50) in macrophages cells to activity (IC50) against Leishmania axenic amastigotes. The experiments were performed in triplicate, and two independent experiments were conducted.

Data set [2] concerns human THP-1-derived macrophages. The data set is described as above. In kind it is cell-based. On the procedure: as §1
The subject of data set [3] is L. infantum axenic amastigotes. Nature of the data set: In vitro inhibition of axenic amastigote growth (MTT). The class given is cell-based, Leishmania infantum. The following applies: 72 h, read-out: axenic amastigote EC50 ± SE (95% CI). The method, then:
Axenic amastigote growth inhibition was evaluated using L. infantum strain (MHOM/TN/80/IPT1, WHO international reference strain). Axenic amastigote cultures were obtained as described previously with modifications.[45] Promastigotes were grown in Schneider’s Drosophila medium (SIGMA) containing 10% heat-inactivated fetal calf serum (FCS)(GIBCO-BRL) and 2% gentamicin (50 mg/L)(Sigma) in 25 cm^2 flasks at 22 °C. After 4–5 days, the parasites were adjusted to 1 × 10^6 parasites/mL in axenic medium MAA/20 consisting of modified medium 199 (Gibco BRL) with Hanks’ salts supplemented with 0.5% tryptic soy broth (Sigma), 0.01 mM bathocuproine disulfonic acid, 3 mM L-cysteine, 15 mM D-glucose, 5 mM L-glutamine, 4 mM NaHCO3, 0.023 mM bovine hemin, and 25 mM HEPES to a final pH of 6.5 and supplemented with 20% pretested FCS, and axenic amastigotes were obtained by shifting the incubation conditions: 198 μL of suspension was seeded in triplicate in 96-well flat bottom microplates and incubated at 37 °C, 5% CO2 for 48 h in order to allow the axenization. The amastigote cells were visualized under the light microscope to confirm transformation. Then, 2 μL of the selected compounds with varying concentrations were added: 100, 50, 25, 12.5, 6.25, 3.12, 1.56, 0.8, 0.4, 0.2, 0.1, 0.05 μM. […] Each experiment was conducted in triplicate for each drug concentration, and three independent experiments were performed. To estimate the 50% inhibitory concentration (IC50), the (3-[4.5-dimethylthiazol-2-yl]-2.5-diphenyltetrazolium bromide) (MTT) micromethod was used throughout the experiments with modification. After 72 h of incubation, 30 μL of MTT was added to each well, and the plates were further incubated for 3 h. The absorbance at 550 nm was measured with a 96-well scanner. Antileishmanial activity was expressed as the percentage of inhibition in the number of live parasites compared to that in the control (nontreated parasites). % inhibition was calculated as follows: % growth inhibition = [(absorb cell with drug × 100)/absorb cell control] – 100. Results were analyzed by GraphPad Prism 5.0, dose–response curves were obtained and IC50 deduced (GraphPad Software Inc., San Diego, USA).

The nature of data set [4]: Cytotoxicity assay on primary murine macrophages (MTT). The conditions noted are these: Balb/c, mouse, primary peritoneal exudate macrophages, read-out: primary murine macrophage CC50 ± SE (95% CI). The class given is cell-based, Balb/c mice. On the procedure: as §1
Data set [5] relates to L. infantum axenic amastigotes. The following applies: stated for the control (Euroclone) in the axenic amastigote method; read-out: IC50 of the control drug; cited from earlier work.
Data set [6] relates to L. infantum intramacrophage amastigotes. In words: Ex vivo inhibition of intramacrophage amastigote growth. In kind it is cell-based, Leishmania infantum. The conditions noted are these: Leishmania infantum, Macrophage, in Mus musculus, 72 h, murine macrophages infected with L. infantum amastigotes, 72 h, read-out: intramacrophage amastigote EC50 ± SE (95% CI). The method, then: Balb/c murine macrophages were used to perform ex vivo assay since the parasites infect them more effectively. Macrophages (5 × 10^5/well) were placed on glass coverslips within a 24-well culture plate and incubated with complete RPMI in a 5% CO2 incubator at 37 °C for 4 h to achieve cell adhesion. After this time, L. infantum amastigotes from spleens of previously infected hamsters were added onto the macrophages adhering to the coverslips at the ratio of 10:1 (parasites/macrophages). After 24 h of infection, the noninternalized amastigotes were removed by washes with RPMI. The infected macrophages were incubated with complete RPMI medium (control) or medium containing different concentrations of compounds in a 5% CO2 incubator at 37 °C for 72 h. Then, the coverslips were fixed with methanol, stained with Giemsa 10%, and analyzed by optical microscopy. The percentage of the infected macrophages and the number of amastigotes per infected macrophage were determined by random counting of 100 cells in each coverslip. Infection was judged to be adequate if more than 70% of the macrophages in the untreated control were infected. Activity for each compound was expressed as percentage of parasite burden reduction = infectivity index of treated cells/infectivity index of untreated cells. The infectivity index was calculated as follows: number of infected macrophages × mean number of amastigotes per macrophage / total number of macrophages. Nonlinear regression analysis (Graph-Pad Software Inc., San Diego, USA) was used for curve fitting and calculation of 50% inhibitory concentrations (IC50). The experiments were performed in triplicate, and two independent experiments were conducted.

Data set [7] relates to primary murine macrophages. In words: Cytotoxicity assay on primary murine macrophages (MTT). In kind it is cell-based, Balb/c mice. The following applies: Balb/c peritoneal macrophages, 72 h, read-out: primary murine macrophage CC50 ± SE (95% CI). On the procedure: as §1
In data set [8] the target is T1, hGR (human glutathione reductase) (Homo sapiens, UniProt P00390).
T1 construct: purchased Sigma-Aldrich
T1 sequence (P00390 44-522): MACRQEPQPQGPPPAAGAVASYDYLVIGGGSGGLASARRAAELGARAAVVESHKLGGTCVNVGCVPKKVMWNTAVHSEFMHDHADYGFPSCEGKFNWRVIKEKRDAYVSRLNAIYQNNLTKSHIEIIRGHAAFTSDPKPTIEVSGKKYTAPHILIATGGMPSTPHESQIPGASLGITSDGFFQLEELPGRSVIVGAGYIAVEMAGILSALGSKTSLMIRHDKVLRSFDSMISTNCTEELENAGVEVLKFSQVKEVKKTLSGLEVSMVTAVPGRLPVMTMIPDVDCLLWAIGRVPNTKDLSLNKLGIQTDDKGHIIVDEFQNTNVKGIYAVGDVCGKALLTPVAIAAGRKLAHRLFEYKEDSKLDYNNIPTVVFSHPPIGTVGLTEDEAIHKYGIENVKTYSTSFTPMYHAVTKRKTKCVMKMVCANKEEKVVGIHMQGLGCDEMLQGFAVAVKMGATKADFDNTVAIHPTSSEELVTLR
In words: hGR enzymatic inhibition assay (NADPH oxidation at 340 nm). The class given is biochemical. On the procedure: (§2) Enzymatic inhibition assays were performed in 50 mM HEPES pH 7.4, 40 mM NaCl at 25 °C using a JASCO V650 spectrophotometer equipped with a JASCO EHC 716 Peltier element to ensure controlled temperature. The first experiment was carried out using 50 nM LiTR, 10 or 100 μM compound to be tested, 150 μM trypanothione (trypanothione disulfide purchased from Bachem), and 100 μM NADPH (tetrasodium salt, purchased from Calbiochem). The best inhibitor candidates were then tested at concentrations ranging from 1 nM to 250 μM to determine the IC50. Assays were initiated upon addition of 100 μM NADPH to 50 nM LiTR or hGR (human glutathione reductase purchased from Sigma-Aldrich) in the presence of different concentration of compounds and 150 μM trypanothione. For both experiments, the oxidation of NADPH was followed as a decrease in absorbance at 340 nm. For each concentration of compound, the initial velocity of the NADPH oxidation was used to determine the percentage of LiTR activity with respect to that in the absence of any compound. The IC50 was determined upon fitting the residual activity of TR as a dose–response logistic equation defined as ymin + (ymax – ymin)/(1 + (x/IC50)^slope). […] The Ki was determined graphically upon linear fitting of data points for each trypanothione concentration. Data analysis was performed with QtiPlot 0.9.8.9 svn 2288, and graphs were made with Matplotlib.
(§3) Figure S3. Inhibition assay of LiTR (red) and hGR (grey) with compounds 5-6, 9-10 and 14.
(§4) Enzymatic assays were carried out at 25°C on a JASCO V650 spectrophotometer equipped with a JASCO EHC716 Peltier unit. Compound concentrations used during the experiments range from 1 […]
(§5) higher than 30 µM and 20 µM, respectively. Briefly, 50 nM LiTR or hGR (Sigma Aldrich) were mixed in 50 mM HEPES pH 7.4, 40 mM NaCl with each compound and 150 µM trypanothione or glutathione. After 3-minute incubation at 25°C, the measurement was initiated upon addition of 100 µM NADPH. The oxidation of NADPH was followed as a decrease in absorbance at 340 nm. Each initial velocity of LiTR enzymatic reaction with the compounds was expressed as a percentage of residual activity with respect to that in the absence of compound. Each data point is the mean of two measurements. The IC50 was determined upon fitting the data as a dose response logistic equation defined by the Kaleidagraph software as ymin+(ymax-ymin)/(1+(x/IC50)^slope).
(§6) (1 picture or pasted object on this page, not shown here)

Data set [9] is described as follows: Solubility observed in the enzymatic assay. The class given is physicochemical. The conditions noted are these: no reliable data at concentrations higher than 30 µM (5) and 20 µM (6). On the procedure:
as §3, §4, §5, §6

Data set [10] has as its target T2, Leishmania infantum TR (LiTR) (Leishmania infantum, UniProt A4HSF7).
T2 construct: The TbTR and LiTR genes were subcloned in a pET28b vector; 6-His (cleaved yes); made in house; host or cells: E. coli BL21(DE3), pET28b
Nature of the data set: LiTR enzymatic inhibition assay (NADPH oxidation at 340 nm). In kind it is biochemical. On the procedure:
as §2, §3, §4, §5, §6

Where two headings read alike, the source gives them in different places.

T2 sequence (A4HSF7 1-491): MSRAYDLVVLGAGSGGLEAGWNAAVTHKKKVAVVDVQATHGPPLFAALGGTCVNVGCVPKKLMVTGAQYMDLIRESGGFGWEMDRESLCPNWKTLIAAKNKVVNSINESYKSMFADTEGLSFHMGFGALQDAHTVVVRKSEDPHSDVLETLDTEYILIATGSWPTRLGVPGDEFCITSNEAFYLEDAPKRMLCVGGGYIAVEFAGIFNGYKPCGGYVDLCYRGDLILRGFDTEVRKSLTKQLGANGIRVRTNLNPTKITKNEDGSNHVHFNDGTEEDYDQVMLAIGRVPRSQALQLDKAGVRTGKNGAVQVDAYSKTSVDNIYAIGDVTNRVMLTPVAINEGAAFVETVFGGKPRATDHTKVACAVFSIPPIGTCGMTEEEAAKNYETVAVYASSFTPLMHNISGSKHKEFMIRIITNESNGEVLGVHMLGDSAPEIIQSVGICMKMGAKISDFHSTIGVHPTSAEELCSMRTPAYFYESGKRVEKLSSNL

A word on the CC50: it is the concentration that lowers cell viability or growth by half. By EC50 is commonly meant the concentration needed to bring the measured effect to its halfway point. The IC50 is the point on the concentration scale where inhibition reaches its midpoint. In the case of `C[C@@H]1[C@H](O)[C@@H](C)/C=C/C=C/C=C/C=C/C=C/C=C/C=C/[C@H](O[C@@H]2O[C@H](C)[C@@H](O)[C@H](N)[C@@H]2O)C[C@@H]2O[C@](O)(C[C@@H](O)C[C@@H](O)[C@H](O)CC[C@@H](O)C[C@@H](O)CC(=O)O[C@H]1C)C[C@H](O)[C@H]2C(=O)O` [AmpB, Amphotericin B, reference compound], the CC50 at 72 h in data set [1] turned out to be 21.1 ± 3 µM; in data set [4] it was 16.7 ± 2.05 µM. Besides, in [2], the “SI = human THP-1-derived macrophage CC50/axenic amastigote EC50” value came to 26.4. Further, the EC50 was 0.8 ± 0.4 µM in [3] (Leishmania infantum) and 0.54 ± 0.3 µM in data set [6]. In addition, the IC50 in [5] is 0.5 µM.

In the case of `O=C(NCCc1ccc(F)cc1)c1ccc(CN(C(=O)N2CCN(CCCc3ccccc3)CC2)c2ccc(F)cc2)o1` [Compound 5, N-((5-((4-Fluorophenethyl)carbamoyl)furan-2-yl)methyl)-N-(4-fluorophenyl)-4-(3-phenylpropyl)piperazine-1-carboxamide], the CC50 at 72 h in data set [1] is 9.6 ± 0.71 µM; in data set [4], 12.9 ± 0.9 µM. Also, in data set [2], the “SI = human THP-1-derived macrophage CC50/axenic amastigote EC50” value came out at 0.8. Moreover, the CC50 in data set [2] (72 h, MTT, read-out: human THP-1-derived macrophage CC50 ± SE (95% CI)) worked out at 6.5 ± 0.6 µM; in [7], 9.1 ± 0.9 µM. Also, the EC50 stood at 12 ± 1.7 µM in [3] and 11.5 ± 2.1 µM in data set [3] (Leishmania infantum). Besides, the IC50 in data set [8] (50 nM hGR, 100 μM NADPH, 25 °C) is 163 ± 58.8 µM; in data set [10] (50 nM LiTR, 150 μM trypanothione, 100 μM NADPH, 25 °C), 54.6 ± 20.9 µM. In addition, the “SI (ratio of GR IC50/TR IC50)” value in data set [8] (hGR versus LiTR) is recorded as 3. Also, the “solubility in the enzymatic assay” value in data set [9] is listed as “low solubility”. For the same molecule, the “decrease in TR activity” value in [10] (compound at 100 μM) is on record as 35.1%. Further, in data set [10] (compound at 100 μM, mean ± SD, n = 3, 100 µM), the “LiTR residual activity %” value was 65.4 ± 3.0 @100 μM %. In addition, in data set [10] (compound at 100 μM, mean ± SD, n = 3, read-out: LiTR residual activity %), the remaining activity at 100 µM was determined as 64.9%.
